Common to all, as to details: in vivo
Data set [1] can be described thus: Percentage bioavailability vs time profile of Nutraceutical 1 from coated STN (FIG. 6).
The nature of data set [2]: Percentage cumulative bioavailability vs time profile of two antibiotics from coated STN (FIG. 4).
Data set [3] in a line: Percentage bioavailability vs time profile of anticancer drug from coated STN (FIG. 5). An excerpt:
FIG. 5: Percentage Bioavailability vs time profile of anticancer drug (docetaxel) from coated STN indicating >90% release after 9 hr against conventional oral form with <10% bioavailability

The results in this text go back to US11471422B2, “Stealth, targeted nanoparticles (STN) for oral drug delivery” (priority 2014, dated 2022).

Like-named read-outs stand apart in the source and are kept apart here.

For `COC1=C(OC)C(=O)C(C/C=C(\C)CC/C=C(\C)CC/C=C(\C)CC/C=C(\C)CC/C=C(\C)CC/C=C(\C)CC/C=C(\C)CC/C=C(\C)CC/C=C(\C)CCC=C(C)C)=C(C)C1=O` [Coenzyme Q 10], the bioavailability at 6 hrs in data set [1] (oral, from coated STN, at 6 hrs) is more than 80%. In addition, in data set [1] (conventional formulations), the bioavailability is less than 15%. Compound `CO/N=C(\C(=O)N[C@@H]1C(=O)N2C(C(=O)O)=C(CSc3nc(=O)c(=O)[nH]n3C)CS[C@H]12)c1csc(N)n1` [ceftriaxone] yielded a bioavailability at 7 hr in data set [2] (po) of more than 100%. As to `CC(=O)O[C@@]12CO[C@@H]1C[C@H](O)[C@@]1(C)C(=O)[C@H](O)C3=C(C)[C@@H](OC(=O)[C@H](O)[C@@H](NC(=O)OC(C)(C)C)c4ccccc4)C[C@@](O)([C@@H](OC(=O)c4ccccc4)[C@H]21)C3(C)C` [docetaxel], in data set [3] (oral, from coated STN, after 9 hr (printed as release)), the bioavailability at 9 hr was more than 90%. Further, in data set [3] (conventional oral form), the bioavailability is less than 10%. Turning to `CC1(C)[C@H](C(=O)O)N2C(=O)C[C@H]2S1(=O)=O` [sulbactam], the bioavailability at 7 hr in data set [2] (from coated STN, STN oral delivery, at 7 hr, read-out: Percentage cumulative bioavailability) was more than 100%.
